Measurements as given in ChEMBL document CHEMBL1275262, “Stereoselective phosphorylation of cyclopropavir by pUL97 and competitive inhibition by maribavir” (Antimicrob Agents Chemother, 2010).
The source made the active and inactive calls. The rule behind the calls is not given here.

Experiments:
Murid betaherpesvirus 1 = experiment: Antiviral activity against Murine cytomegalovirus infected in severe combined immunodeficient mouse assessed as reduction in viral load; format: functional
Human betaherpesvirus 5 [1] = experiment: Antiviral activity against Human cytomegalovirus infected in severe combined immunodeficient mouse with human fetal tissue implanted assessed as reduction in viral replication; format: functional, organism-based
Human betaherpesvirus 5 [2] = experiment: Antiviral activity against Human cytomegalovirus; format: functional, organism-based

Row | SMILES | fold change (FC) (Murid betaherpesvirus 1) | Activity (Human betaherpesvirus 5 [1]) | EC50 (Human betaherpesvirus 5 [2]) [µM]
1 | Nc1nc2c(ncn2/C=C2/CC2(CO)CO)c(=O)[nH]1 [FILOCICLOVIR] | 2 | Active | –
2 | Nc1nc2c(ncn2COC(CO)CO)c(=O)[nH]1 [GANCICLOVIR] | – | – | 4.1
